“And” between values parts separate entries of the source, which are not always exact repeats. Identical values can stand only once.

From US10670605B2, “Cysteine reactive probes and uses thereof” (The Scripps Research Institute, priority 2015, dated 2020) come the findings set out here.

Test [1] deals with T1, ERCC3 C342 (P19447) (Homo sapiens, UniProt P19447).
T1 sequence (P19447 1-782): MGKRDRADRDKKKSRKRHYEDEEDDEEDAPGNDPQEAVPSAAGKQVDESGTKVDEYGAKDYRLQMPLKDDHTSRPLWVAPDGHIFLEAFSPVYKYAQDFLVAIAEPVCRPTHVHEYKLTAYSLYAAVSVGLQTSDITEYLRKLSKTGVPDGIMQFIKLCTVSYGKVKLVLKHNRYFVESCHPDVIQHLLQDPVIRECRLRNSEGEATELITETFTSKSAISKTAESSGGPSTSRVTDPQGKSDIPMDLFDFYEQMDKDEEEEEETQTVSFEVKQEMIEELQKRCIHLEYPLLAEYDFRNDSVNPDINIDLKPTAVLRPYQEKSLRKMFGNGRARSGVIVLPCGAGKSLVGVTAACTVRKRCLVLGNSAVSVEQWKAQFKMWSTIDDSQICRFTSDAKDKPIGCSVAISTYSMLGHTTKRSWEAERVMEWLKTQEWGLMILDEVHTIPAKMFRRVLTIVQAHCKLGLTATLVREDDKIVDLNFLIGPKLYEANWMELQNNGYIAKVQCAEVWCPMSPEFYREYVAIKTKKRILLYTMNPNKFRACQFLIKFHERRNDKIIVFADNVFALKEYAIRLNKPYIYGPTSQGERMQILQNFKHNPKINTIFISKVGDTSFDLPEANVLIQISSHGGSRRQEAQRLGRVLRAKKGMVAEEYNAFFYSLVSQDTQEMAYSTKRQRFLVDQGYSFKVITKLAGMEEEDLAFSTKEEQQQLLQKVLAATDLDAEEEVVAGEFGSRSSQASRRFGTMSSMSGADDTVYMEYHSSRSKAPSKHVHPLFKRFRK
Nature of the test: Competitive isoTOP-ABPP, cell lysates. It counts as binding. Conditions: for R value (DMSO/fragment): in vitro; for isoTOP-ABPP ratio P19447_C342: invitro; for isoTOP-ABPP reactivity ratio, P19447_C342 / isoTOP-ABPP reactivity profile ratio, P19447_C342: 500 μm, in-vitro_ramos_231.
Procedure: TEV digests were pressure loaded onto a 250 μm (inner diameter) fused silica capillary column packed with C18 resin (Aqua 5 μm, Phenomenex). The samples were analyzed by multidimensional liquid chromatography tandem mass spectrometry (MudPIT), using an LTQ-Velos Orbitrap mass spectrometer (Thermo Scientific) coupled to an Agilent 1200-series quaternary pump. […] One full MS (MS1) scan (400-1800 m/z) was followed by 30 MS2 scans (ITMS) of the nth most abundant ions.
The ratios of heavy/light for each unique peptide (DMSO/compound treated; isoTOP-ABPP ratios, R values) were quantified with in-house CIMAGE software, using default parameters (3 ms s per peak and signal to noise threshold 2.5). Site-specific engagement of electrophilic fragments was assessed by blockade of IA-alkyne probe labeling. […] Ratios for unique peptide entries were calculated for each experiment; overlapping peptides with the same modified cysteine (e.g. different charge states, MudPIT chromatographic steps or tryptic termini) were grouped together and the median ratio was reported as the final ratio (R). The peptide ratios reported by CIMAGE were further filtered to ensure the removal or correction of low quality ratios in each individual dataset. The quality filters applied were the following: removal of half tryptic peptides; for ratios with high standard deviations from the median (90% of the median or above) the lowest ratio was taken instead of the median; removal of peptides with R=20 and only a single ms2 event triggered during the elution of the parent ion; manual annotation of all the peptides with ratios of 20, removing any peptides with low-quality elution profiles that remained after the previous curation steps. Proteome reactivity values for individual fragments were computed as the percentage of the total quantified cysteine-containing peptides with R values≥4 (defined as liganded cysteines) for each replicate experiment and the final proteome reactivity value was calculated as the mean for all replicate experiments for each fragment from both MDA-MB-231 and Ramos cellular proteomes.
Biological replicates of the same compound and cell-line were averaged if the standard deviation was below 60% of the mean; otherwise the lowest value of the ratio set was taken. For peptides with multiple modified cysteines, the cysteine with the highest number of quantification events was kept and the remaining, redundant peptides were discarded. […] Although the majority (>75% of fragments) were profiled in at least two biological replicates, some data from single replicate MS experiments were included.

For test [2], the target named is T2, IRF8 C306 (Q02556) (Homo sapiens, UniProt Q02556).
T2 sequence (Q02556 1-426): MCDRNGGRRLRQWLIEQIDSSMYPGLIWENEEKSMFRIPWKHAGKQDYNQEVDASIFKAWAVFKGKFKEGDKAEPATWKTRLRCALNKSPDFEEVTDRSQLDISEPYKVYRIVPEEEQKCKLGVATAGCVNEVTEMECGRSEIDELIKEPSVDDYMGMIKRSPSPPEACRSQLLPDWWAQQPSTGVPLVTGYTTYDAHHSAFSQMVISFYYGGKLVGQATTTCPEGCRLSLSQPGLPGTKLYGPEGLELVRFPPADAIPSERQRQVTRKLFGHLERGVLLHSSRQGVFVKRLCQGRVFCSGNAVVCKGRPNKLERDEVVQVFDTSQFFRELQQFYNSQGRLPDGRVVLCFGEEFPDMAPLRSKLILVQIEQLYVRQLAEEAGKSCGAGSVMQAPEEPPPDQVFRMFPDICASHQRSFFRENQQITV
As to the kind of experiment: Competitive isoTOP-ABPP, cell lysates. It counts as binding. To be noted: for isoTOP-ABPP reactivity ratio, Q02556_C306 / isoTOP-ABPP reactivity profile ratio, Q02556_C306: 500 μm, in-vitro_ramos.

On to `COc1ccc2c(c1)CCCN2C(=O)CCl` [compound 2], for which the “R value (DMSO/fragment)” value in test [1] (500 μM, MDA-MB-231) came to 20.0.

As for `O=C(CCl)Nc1cc(C(F)(F)F)cc(C(F)(F)F)c1` [compound 3], the “R value (DMSO/fragment)” value in test [2] (500 μM, invitro, ramos) is given as 5.6; in test [1] (500 μM, MDA-MB-231), 12.1.

`COc1ccc(C2CC(c3cccs3)=NN2C(=O)CCl)cc1` (stereo not drawn) [compound 4]: the “R value (DMSO/fragment)” value in test [1] (250 μM, MDA-MB-231) is listed as 1.6; in test [1] (250 μM, Ramos) it was 1.1.

With `C=CC(=O)N(c1ccccc1)c1ccc(Br)cc1` [compound 5], the “isoTOP-ABPP ratio, Q02556_C306” value in test [2] (500 μM, invitro, ramos) was 2.6. Also, the “isoTOP-ABPP ratio P19447_C342” value in test [1] (500 μM, ramos) turned out to be 4.1.

Turning to `CNS(=O)(=O)C=Cc1ccc2c(ccn2Cc2ccccc2)c1` [compound 6], in test [1] (500 μM, 231), the “isoTOP-ABPP ratio P19447_C342” value turned out to be 1.1.

In the case of `O=C(CCl)N1CCN(S(=O)(=O)c2ccccc2F)CC1` [compound 10], in test [2] (500 μM, invitro, ramos), the “isoTOP-ABPP ratio, Q02556_C306” value amounted to 3.6. In addition, the “isoTOP-ABPP ratio P19447_C342” value in test [1] (500 μM, 231) worked out at 3.0.

As for `Cn1cc(S(=O)(=O)N2CCOCC2)cc1C(=O)NC(=O)CCl` [compound 11], the “isoTOP-ABPP ratio, Q02556_C306” value in test [2] (500 μM, invitro, ramos) is on record as 3.1. For the same compound, the “isoTOP-ABPP ratio P19447_C342” value in test [1] (500 μM, 231) is recorded as 2.9; in test [1] (500 μM, ramos) it was 1.5.

For `O=C(CCl)NC(=O)NC12CC3CC(CC(C3)C1)C2` [compound 12], in test [1] (500 μM, 231), the “isoTOP-ABPP ratio P19447_C342” value turned out to be 3.0.

Consider `O=C(CCl)NCCc1c[nH]c2ccccc12` [compound 13], for which, in test [2] (500 μM, invitro, ramos), the “isoTOP-ABPP ratio, Q02556_C306” value stood at 0.7. Further, in test [1] (500 μM, 231), the “isoTOP-ABPP ratio P19447_C342” value is recorded as 1.0.

As for `C=CC(=O)N(Cc1cccnc1)c1ccc(Oc2ccccc2)c(C(F)(F)F)c1` [compound 15], in test [2] (500 μm in-vitro ramos), the “isoTOP-ABPP ratio (reactivity profile), Q02556_C306” value amounted to 2.1.

Turning to `O=C(CCl)N1CCC(C(O)(c2ccccc2)c2ccccc2)CC1` [compound 20], the “isoTOP-ABPP ratio (reactivity profile), Q02556_C306” value in test [2] (500 μm in-vitro ramos) is given as 2.1. The “isoTOP-ABPP ratio (reactivity profile), P19447_C342” value in test [1] (500 μm in-vitro ramos_231) is 2.6.

As to `O=C(CCl)NC12CC3CC(CC(C3)C1)C2` [compound 21], the “isoTOP-ABPP ratio (reactivity profile), P19447_C342” value in test [1] (500 μm in-vitro ramos_231) was determined as 6.1.

As to `N#C/C(=C\c1cc(C(F)(F)F)cc(C(F)(F)F)c1)C(N)=O` [compound 23], the “isoTOP-ABPP ratio (reactivity profile), P19447_C342” value in test [1] (500 μm in-vitro ramos_231) was found to be 1.6.

Take `CC(Br)C(=O)Nc1cc(C(F)(F)F)cc(C(F)(F)F)c1` (stereo not drawn) [compound 24]: the “isoTOP-ABPP ratio (reactivity profile), Q02556_C306” value in test [2] (500 μm in-vitro ramos) is reported as 1.2.

For `CC(Cl)C(=O)Nc1cc(C(F)(F)F)cc(C(F)(F)F)c1` (stereo not drawn) [compound 25], in test [1] (500 μm in-vitro ramos_231), the “isoTOP-ABPP ratio (reactivity profile), P19447_C342” value turned out to be 0.9.

In the case of `CC(C)CCOCCNC(=O)CCl` [compound 27], the “isoTOP-ABPP ratio (reactivity profile), Q02556_C306” value in test [2] (500 μm in-vitro ramos_231) is recorded as 1.1. Moreover, the “isoTOP-ABPP ratio (reactivity profile), P19447_C342” value in test [1] (500 μm in-vitro ramos_231) is 0.8 and 1.1.

For the compound `O=C(CCl)N1CCN(CC(=O)N2CCOCC2)CC1` [compound 29], the “isoTOP-ABPP ratio (reactivity profile), P19447_C342” value in test [1] (500 μm in-vitro ramos_231) was 0.8.

In the case of `CCN(CC)c1ccc(S(N)(=O)=O)cc1NC(=O)CCl` [compound 30], the “isoTOP-ABPP reactivity ratio, Q02556_C306” value in test [2] is listed as 2.0. Besides, the “isoTOP-ABPP ratio (reactivity profile), P19447_C342” value in test [1] (500 μm in-vitro ramos) is 1.3.

Turning to `O=C(CCl)Nc1ccccc1C1CCCCCC1` [compound 35], the “isoTOP-ABPP reactivity ratio, Q02556_C306” value in test [2] was 1.2.

With `C=CC(=O)Nc1cc(F)c(N2CCN(C(=O)OC(C)(C)C)CC2)c(F)c1` [compound 38], the “isoTOP-ABPP reactivity ratio, P19447_C342” value in test [1] stood at 1.3.

In the case of `C=CC(=O)Nc1cc(C)c(Br)cc1C` [compound 40], the “isoTOP-ABPP reactivity ratio, Q02556_C306” value in test [2] is recorded as 0.9.

Regarding `Cc1ccc(C=C(C#N)C(=O)NCCN2CCOCC2)cc1` [compound 41], the “isoTOP-ABPP reactivity ratio, Q02556_C306” value in test [2] is given as 1.4. In addition, the “isoTOP-ABPP reactivity ratio, P19447_C342” value in test [1] is 1.1.

For the compound `N#CC(=Cc1ccc(-c2ccccc2Cl)o1)C(N)=O` [compound 42], the “isoTOP-ABPP reactivity profile ratio, Q02556_C306” value in test [2] amounted to 0.9.

`COc1cc(NC(=O)CCl)cc(OC)c1` [compound 43]: in test [2], the “isoTOP-ABPP reactivity profile ratio, Q02556_C306” value is reported as 2.7.

Regarding `C=CC(=O)N(c1ccccc1)C1CCCCC1` [compound 46], the “isoTOP-ABPP reactivity profile ratio, P19447_C342” value in test [1] came out at 1.0.

Regarding `O=C(CCl)Nc1cccc2ncccc12` [compound 51], the “isoTOP-ABPP reactivity profile ratio, Q02556_C306” value in test [2] was found to be 1.5. In test [1], the “isoTOP-ABPP reactivity profile ratio, P19447_C342” value was determined as 1.4.

As for `O=C(CCl)Nc1ccc(-c2ccccc2)cc1` [compound 52], the “isoTOP-ABPP reactivity profile ratio, P19447_C342” value in test [1] turned out to be 1.0.
